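Five concentrations, 48 hours, 96-well plates. GI50 is the concentration that inhibits growth by half.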 The source made the active and inactive calls. Cut-off read from the data, not from the text of the source: active = GI50 up to about 1.1 µM and inactive = higher. Where a SMILES comes first, the peptide text is derived from it. The star is where a group is joined. Boc = CC(C)(C)OC(=O)*
Experiments:
Assay in all cases: DTP human tumour cell line panel, 48 h
A498 = test system: A498
A549 = test system: A549
ACHN = test system: ACHN
CAKI-1 = test system: CAKI-1
COLO 205 = test system: COLO 205
DU-145 = test system: DU-145
EKVX = test system: EKVX
HCT-116 = test system: HCT-116
HCT-15 = test system: HCT-15
HOP-92 = test system: HOP-92
HT-29 = test system: HT-29
IGROV-1 = test system: IGROV-1
KM12 = test system: KM12
M14 = test system: M14
MDA-MB-231 = test system: MDA-MB-231
MDA-MB-435 = test system: MDA-MB-435
MDA-N = test system: MDA-N
NCI-H226 = test system: NCI-H226
NCI-H23 = test system: NCI-H23
NCI/ADR-RES = test system: NCI/ADR-RES
OVCAR-3 = test system: OVCAR-3
OVCAR-4 = test system: OVCAR-4
OVCAR-5 = test system: OVCAR-5
OVCAR-8 = test system: OVCAR-8
PC-3 = test system: PC-3
RXF 393 = test system: RXF 393
SF-268 = test system: SF-268
SF-295 = test system: SF-295
SF-539 = test system: SF-539
SK-MEL-5 = test system: SK-MEL-5
SN12C = test system: SN12C
SNB-19 = test system: SNB-19
SNB-75 = test system: SNB-75
SW-620 = test system: SW-620
TK-10 = test system: TK-10
U-251 = test system: U-251
UO-31 = test system: UO-31
786-0 = test system: 786-0
HL-60 = test system: HL-60
HOP-62 = test system: HOP-62
Hs-578T = test system: Hs-578T
K562 = test system: K562
LOX IMVI = test system: LOX IMVI
MCF7 = test system: MCF7
MOLT-4 = test system: MOLT-4
Malme-3M = test system: Malme-3M
NCI-H522 = test system: NCI-H522
RPMI-8226 = test system: RPMI-8226
SK-MEL-28 = test system: SK-MEL-28
SK-MEL-2 = test system: SK-MEL-2
SK-OV-3 = test system: SK-OV-3
SR = test system: SR
T47D = test system: T47D
UACC-257 = test system: UACC-257
CCRF-CEM = test system: CCRF-CEM
HCC 2998 = test system: HCC 2998
NCI-H460 = test system: NCI-H460
UACC-62 = test system: UACC-62

## CC1(C)CC(=O)C(C(CC(c2ccccc2)c2cc3c(cc2O)OCO3)C2=C(O)CC(C)(C)CC2=O)=C(O)C1 (centres undefined)
A498
  GI50: > 10 µM (inactive)
A549
  GI50: > 10 µM (inactive)
ACHN
  GI50: > 10 µM (inactive)
CAKI-1
  GI50: > 10 µM (inactive)
COLO 205
  GI50: > 10 µM (inactive)
DU-145
  GI50: > 10 µM (inactive)
EKVX
  GI50: > 10 µM (inactive)
HCT-116
  GI50: > 10 µM (inactive)
HCT-15
  GI50: > 10 µM
HOP-92
  GI50: > 10 µM (inactive)
HT-29
  GI50: > 10 µM (inactive)
IGROV-1
  GI50: > 10 µM (inactive)
KM12
  GI50: > 10 µM (inactive)
M14
  GI50: > 10 µM (inactive)
MDA-MB-231
  GI50: > 10 µM (inactive)
MDA-MB-435
  GI50: > 10 µM (inactive)
MDA-N
  GI50: > 10 µM (inactive)
NCI-H226
  GI50: > 10 µM (inactive)
NCI-H23
  GI50: > 10 µM (inactive)
NCI/ADR-RES
  GI50: > 10 µM (inactive)
OVCAR-3
  GI50: > 10 µM (inactive)
OVCAR-4
  GI50: > 10 µM (inactive)
OVCAR-5
  GI50: > 10 µM (inactive)
OVCAR-8
  GI50: > 10 µM (inactive)
PC-3
  GI50: > 10 µM (inactive)
RXF 393
  GI50: > 10 µM (inactive)
SF-268
  GI50: > 10 µM (inactive)
SF-295
  GI50: > 10 µM (inactive)
SF-539
  GI50: > 10 µM (inactive)
SK-MEL-5
  GI50: > 10 µM (inactive)
SN12C
  GI50: > 10 µM (inactive)
SNB-19
  GI50: > 10 µM (inactive)
SNB-75
  GI50: > 10 µM (inactive)
SW-620
  GI50: > 10 µM (inactive)
TK-10
  GI50: > 10 µM (inactive)
U-251
  GI50: > 10 µM (inactive)
UO-31
  GI50: > 10 µM (inactive)

## O=c1c2cc(Br)cc(Br)c2[nH]c(=S)n1-c1ccc(/N=N/c2ccc(O)c3cccnc23)cc1
786-0
  GI50: 25.7 µM (inactive)
A498
  GI50: > 100 µM (inactive)
A549
  GI50: 17.8 µM (inactive)
ACHN
  GI50: 25.4 µM (inactive)
CAKI-1
  GI50: 54.3 µM (inactive)
COLO 205
  GI50: 32.1 µM (inactive)
DU-145
  GI50: 33 µM (inactive)
EKVX
  GI50: 38.6 µM (inactive)
HCT-116
  GI50: 26.2 µM (inactive)
HL-60
  GI50: 38.1 µM (inactive)
HOP-62
  GI50: 33.3 µM (inactive)
HOP-92
  GI50: 18 µM (inactive)
HT-29
  GI50: 39.6 µM (inactive)
Hs-578T
  GI50: > 100 µM (inactive)
IGROV-1
  GI50: 11.2 µM (inactive)
K562
  GI50: 10.7 µM (inactive)
KM12
  GI50: > 100 µM (inactive)
LOX IMVI
  GI50: 24.5 µM (inactive)
M14
  GI50: 39.7 µM (inactive)
MCF7
  GI50: 12.9 µM (inactive)
MDA-MB-231
  GI50: 32.2 µM (inactive)
MDA-MB-435
  GI50: 35.4 µM (inactive)
MDA-N
  GI50: 31.4 µM (inactive)
MOLT-4
  GI50: 24.8 µM (inactive)
Malme-3M
  GI50: 18.7 µM (inactive)
NCI-H226
  GI50: > 100 µM (inactive)
NCI-H522
  GI50: 18.7 µM (inactive)
OVCAR-3
  GI50: 14 µM (inactive)
OVCAR-4
  GI50: 57.9 µM (inactive)
OVCAR-5
  GI50: 74.5 µM (inactive)
OVCAR-8
  GI50: 23.3 µM (inactive)
PC-3
  GI50: 39.9 µM (inactive)
RPMI-8226
  GI50: 33.9 µM (inactive)
RXF 393
  GI50: 55.2 µM (inactive)
SF-268
  GI50: 17.2 µM (inactive)
SF-295
  GI50: 64.9 µM (inactive)
SF-539
  GI50: 11.5 µM (inactive)
SK-MEL-28
  GI50: 76.9 µM (inactive)
SK-MEL-2
  GI50: > 100 µM (inactive)
SK-MEL-5
  GI50: 11.9 µM (inactive)
SK-OV-3
  GI50: > 100 µM (inactive)
SN12C
  GI50: 44.5 µM (inactive)
SNB-19
  GI50: 19.7 µM (inactive)
SNB-75
  GI50: 29.2 µM (inactive)
SR
  GI50: 3.61 µM (inactive)
SW-620
  GI50: 29.8 µM (inactive)
T47D
  GI50: 38.2 µM (inactive)
TK-10
  GI50: 66.1 µM (inactive)
U-251
  GI50: 19.7 µM (inactive)
UACC-257
  GI50: 50.5 µM (inactive)
UO-31
  GI50: 34.9 µM (inactive)

## COC(=O)C1=CC(NC(=O)OCc2ccccc2)C(C(=O)c2ccccc2)C[C@@H]1Sc1ccccc1 (some centres undefined)
CCRF-CEM
  GI50: 1.47 µM (inactive)
HL-60
  GI50: 1.09 µM (active)
K562
  GI50: 2.19 µM (inactive)
SR
  GI50: < 0.01 µM (active)

## CNC(=O)CNC(=O)C(NC(=O)CNC(=O)C1CCCN1C(=O)C(C)NC(=O)C(NC(=O)OC(C)(C)C)C(C)C)C(C)C (centres undefined) (Boc-VAPGVG-NHMe; configuration not given here)
786-0
  GI50: > 100 µM (inactive)
A498
  GI50: > 100 µM (inactive)
ACHN
  GI50: > 100 µM (inactive)
CAKI-1
  GI50: > 100 µM (inactive)
CCRF-CEM
  GI50: > 100 µM (inactive)
COLO 205
  GI50: > 100 µM (inactive)
DU-145
  GI50: > 100 µM (inactive)
EKVX
  GI50: > 100 µM (inactive)
HCC 2998
  GI50: > 100 µM (inactive)
HCT-116
  GI50: > 100 µM (inactive)
HCT-15
  GI50: > 100 µM
HL-60
  GI50: > 100 µM (inactive)
HOP-62
  GI50: > 100 µM (inactive)
HOP-92
  GI50: > 100 µM (inactive)
HT-29
  GI50: > 100 µM (inactive)
IGROV-1
  GI50: > 100 µM (inactive)
K562
  GI50: > 100 µM (inactive)
LOX IMVI
  GI50: > 100 µM (inactive)
M14
  GI50: > 100 µM (inactive)
MCF7
  GI50: > 100 µM (inactive)
MDA-MB-231
  GI50: > 100 µM (inactive)
MDA-MB-435
  GI50: > 100 µM (inactive)
MDA-N
  GI50: > 100 µM (inactive)
MOLT-4
  GI50: > 100 µM (inactive)
Malme-3M
  GI50: > 100 µM (inactive)
NCI-H23
  GI50: > 100 µM (inactive)
NCI-H460
  GI50: > 100 µM (inactive)
NCI-H522
  GI50: > 100 µM (inactive)
NCI/ADR-RES
  GI50: > 100 µM (inactive)
OVCAR-3
  GI50: > 100 µM (inactive)
OVCAR-4
  GI50: > 100 µM (inactive)
OVCAR-5
  GI50: > 100 µM (inactive)
OVCAR-8
  GI50: > 100 µM (inactive)
PC-3
  GI50: > 100 µM (inactive)
RPMI-8226
  GI50: > 100 µM (inactive)
SF-268
  GI50: > 100 µM (inactive)
SF-295
  GI50: > 100 µM (inactive)
SF-539
  GI50: > 100 µM (inactive)
SK-MEL-28
  GI50: > 100 µM (inactive)
SK-MEL-2
  GI50: > 100 µM (inactive)
SK-OV-3
  GI50: > 100 µM (inactive)
SN12C
  GI50: > 100 µM (inactive)
SNB-19
  GI50: > 100 µM (inactive)
SNB-75
  GI50: > 100 µM (inactive)
SR
  GI50: > 100 µM (inactive)
SW-620
  GI50: > 100 µM (inactive)
T47D
  GI50: > 100 µM (inactive)
TK-10
  GI50: > 100 µM (inactive)
U-251
  GI50: > 100 µM (inactive)
UACC-257
  GI50: > 100 µM (inactive)
UACC-62
  GI50: > 100 µM (inactive)
UO-31
  GI50: > 100 µM (inactive)

Source: ChEMBL document CHEMBL1201862, “PubChem BioAssay data set” (2004)
